Data as given in patent publication US20020102678A1, “Staphylococcal gene, vgaC, conferring resistance to streptogramin A and related compounds” (priority 2000, published 2002).

Tests used:
[1] = tested on: BM3249, S. aureus clinical isolate; experiment: MIC by serial twofold dilutions in MHA, strain BM3249; assay type: cell-based
Method: (§1) Staphylococci were grown in Brain Heart Infusion (Difco Laboratories, Detroit, Mich.), and E. coli cells were grown in Luria broth (10 g.1^−1 of tryptone, 5 g.^−1 of yeast extract, and 10 g.1^−1 of NaCl) Solid media contained 15 g.1^−1 of agar. Bacteria were incubated at 37° C. and for liquid cultures with agitation. Susceptibility to antibiotics was tested on Mueller-Hinton agar (MHA) (Diagnostics Pasteur, Marne-la-Coquette, France).
(§2) Susceptibility to antibiotics was determined by a disk diffusion assay (12) with commercially available antibiotic disks (Diagnostics Pasteur) and disks prepared in our laboratory as described previously (18). MICs of pristinamycin IIA and pristinamycin (Rhône-Poulenc Rorer) were determined with serial twofold dilutions of antibiotics in MHA, as described previously (2, 17).

[2] = tested on: BM3250, S. aureus clinical isolate; experiment: MIC by serial twofold dilutions in MHA, strain BM3250; assay type: cell-based
Method: as §1, §2

[3] = tested on: BM3252, S. aureus clinical isolate; experiment: MIC by serial twofold dilutions in MHA, strain BM3252; assay type: cell-based
Method: as §1, §2

[4] = tested on: BM3318, S. aureus clinical isolate; experiment: MIC by serial twofold dilutions in MHA, strain BM3318; assay type: cell-based
Method: as §1, §2

[5] = tested on: BM3327, S. aureus clinical isolate; experiment: MIC by serial twofold dilutions in MHA, strain BM3327; assay type: cell-based
Method: as §1, §2

[6] = tested on: BM21926, S. aureus transformant: RN4220 (pIP 1810); experiment: MIC by serial twofold dilutions in MHA, transformant carrying vgaC; assay type: cell-based; conditions: S. aureus RN4220 (pIP1810, carries vgaC) = BM21926
Method: as §1, §2
(§3) A DNA fragment of 1827-bp including vgaC was amplified with primers C and D (FIG. 1) from the cellular DNA of BM3327. This amplicon was cleaved with BamHl and KpnI and inserted between the BamHl and KpnI sites of the shuttle vector, pRB374 (11), downstream from the vegII promoter carried by this vector. The resulting plasmid, pIP1810, was introduced by electroporation into the S. aureus recipient RN4220. It conferred resistance to pristinamycin IIA (MICs: 32 mg.1^−1 for RN4220 [pIP18101, and 2 mg.1^−1 for RN4220 [pRB374]).

[7] = tested on: RN4220 [pRB374]; experiment: MIC by serial twofold dilutions in MHA, transformant with the empty vector; assay type: cell-based; conditions: S. aureus RN4220 [pRB374], vector without vgaC
Method: as §1, §2, §3

[8] = tested on: four S. aureus isolates (BM3249, BM3250, BM3252 and BM3327); experiment: MICs of the four isolates used in filter mating; assay type: cell-based; conditions: range over BM3249, BM3250, BM3252 and BM3327
Method: as §1, §2
Each of the four S. aureus isolates (BM3249, BM3250, BM3252 and BM3327: Table 1) resistant to PIIA (MICs : 64-128 mg. 1^−1) and related antibiotics was crossed on a membrane filter with the S. aureus recipient strain, ISP1127 (26). No transcipients were obtained by selection on pristinamycin IIA (frequency<10^−10 transcipients/donor).

[9] = tested on: resistant staphylococci; conditions: staphylococci resistant to A compounds; cited from earlier work

CC1=C\[C@@H](O)CC(=O)Cc2nc(co2)C(=O)N2CCC=C2C(=O)O[C@H](C(C)C)[C@H](C)/C=C/C(=O)NC\C=C\1 [pristinamycin IIA]
MIC [1]: 64 mg.1^−1 | MIC [2]: 64 mg.1^−1 | MIC [3]: 64 mg.1^−1 | MIC [4]: 128 mg.1^−1 | MIC [5]: 128 mg.1^−1 | MIC [6]: 32 mg.1^−1 | MIC ([6]; listed as SgA): SgA (32 mg.1^−1) Km Nm Tm | MIC [7]: 2 mg.1^−1 | MICs [8]: 64-128 mg. 1^−1 | MICs [9]: 8 mg.1^1
